Data set [1] has as its system Abutilon theophrasti. Nature of the data set: Herbicidal activity against velvetleaf assessed as seed germination at 5 mM after 4 days relative to control. In kind it is functional.
Data set [2] concerns Abutilon theophrasti. Nature of the data set: Herbicidal activity against velvetleaf assessed as seed germination at 1 mM after 4 days relative to control. It counts as functional.
Data set [3] relates to Abutilon theophrasti. Nature of the data set: Herbicidal activity against velvetleaf assessed as seed germination at 2.5 mM after 4 days relative to control. In kind it is functional.
A short description of data set [4]: Toxicity in rat. In kind it is organism-based. Particulars: in vivo.
Data set [5] can be described thus: Inhibition of cAMP phosphodiesterase at 0.05 mM.

Where only a bound is given, the exact number is not on record here.

Consider `COc1ccccc1/C=C/C=O`, for which the Activity in data set [1] is recorded as 0%; in data set [2] it was 77%; in data set [3], 3%.
Turning to `COc1ccc(/C=C/C(=O)O)cc1` [4-METHOXYCINNAMIC ACID], the Activity was found to be 83% in data set [1], 107% in data set [2] and 83% in data set [3].
In the case of `C/C=C/c1ccc(OC)cc1` [ANETHOLE], the Activity is reported as 95% in data set [1], 98% in data set [2] and 100% in data set [3].
With `O=C/C=C/c1ccccc1` [CINNAMALDEHYDE], the Activity in data set [1] is 0%; in data set [2], 57%; in data set [3] it was 0%.
On to `O=C(O)/C=C/c1ccccc1` [CINNAMIC ACID], for which the Activity in data set [1] was 5%; in data set [2], 100%; in data set [3], 77%.
On to `OC/C=C/c1ccccc1` [CINNAMIC ALCOHOL], for which the Activity is given as 0% in data set [1], 73% in data set [2] and 0% in data set [3].
`COc1ccc(/C=C/C=O)cc1` [PARA-METHOXY CINNAMALDEHYDE] gave a 50% lethal dose (LD50) in data set [4] greater than 5000 mg/kg. The same molecule returned an inhibition in data set [5] of 50%. Moreover, the Activity in data set [1] was determined as 1%; in data set [2] it was 83%; in data set [3], 8%.

One may read the LD50 as the dose expected to kill half of the subjects tested. Read a low LD50 as a more toxic substance. The term inhibition denotes the change of the read-out against control, counted positive when it falls. A low value points to a weak effect.
